ChEMBL document CHEMBL1201862, “PubChem BioAssay data set” (2004)
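Dose response: 5 concentrations. Exposure: 48 h. Format: 96-well plates. Endpoint: linear interpolation; highest concentration if not reached. Here, GI50 denotes the concentration required for 50% inhibition of growth.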 Activity calls are given as the source filed them. Rule as the data show it: active = GI50 up to about 1.1 µM and inactive = higher.

Columns and labels:
Assay in all cases: inhibition of tumour cell growth, NCI panel, 48 h
UACC-62 = system: UACC-62
COLO 205 = system: COLO 205
HL-60 = system: HL-60
OVCAR-5 = system: OVCAR-5
NCI-H522 = system: NCI-H522
SN12C = system: SN12C
MOLT-4 = system: MOLT-4
UACC-257 = system: UACC-257
SF-295 = system: SF-295
HOP-92 = system: HOP-92
M14 = system: M14
LXFL 529 = system: LXFL 529
KM-20L2 = system: KM-20L2
XF498 = system: XF498
NCI-H460 = system: NCI-H460
HCC 2998 = system: HCC 2998
RPMI-8226 = system: RPMI-8226
TK-10 = system: TK-10
K562 = system: K562
CCRF-CEM = system: CCRF-CEM
Malme-3M = system: Malme-3M
SNB-19 = system: SNB-19
M19-MEL = system: M19-MEL
NCI-H226 = system: NCI-H226
IGROV-1 = system: IGROV-1
NCI-H23 = system: NCI-H23
OVCAR-8 = system: OVCAR-8
DMS-273 = system: DMS-273
RXF 393 = system: RXF 393
SK-MEL-5 = system: SK-MEL-5
A549 = system: A549
HT-29 = system: HT-29
SNB-75 = system: SNB-75
SF-539 = system: SF-539
SK-MEL-2 = system: SK-MEL-2
CAKI-1 = system: CAKI-1
UO-31 = system: UO-31
HOP-18 = system: HOP-18
A498 = system: A498
OVCAR-4 = system: OVCAR-4
HCT-15 = system: HCT-15
OVCAR-3 = system: OVCAR-3
ACHN = system: ACHN
DLD-1 = system: DLD-1
SK-OV-3 = system: SK-OV-3
U-251 = system: U-251
786-0 = system: 786-0
SW-620 = system: SW-620
SK-MEL-28 = system: SK-MEL-28
SF-268 = system: SF-268
EKVX = system: EKVX
LOX IMVI = system: LOX IMVI
KM12 = system: KM12

With O=C(O)CCNS(=O)(=O)c1ccc2ccccc2c1 the GI50 (UACC-62) was > 100 µM (inactive), the GI50 (COLO 205) was > 100 µM (inactive) and the GI50 (HL-60) was > 100 µM (inactive). The GI50 (OVCAR-5) was > 100 µM (inactive), the GI50 (NCI-H522) was > 100 µM (inactive) and the GI50 (SN12C) was > 100 µM (inactive). The GI50 (MOLT-4) was > 100 µM (inactive), the GI50 (UACC-257) was > 100 µM (inactive) and the GI50 (SF-295) was > 100 µM (inactive). The GI50 (HOP-92) was > 100 µM (inactive), the GI50 (M14) was > 100 µM (inactive) and the GI50 (LXFL 529) was > 100 µM (inactive). For the same compound, the GI50 (KM-20L2) was > 100 µM (inactive), the GI50 (XF498) was > 100 µM (inactive) and the GI50 (NCI-H460) was > 100 µM (inactive). For the same compound, the GI50 (HCC 2998) was > 100 µM (inactive), the GI50 (RPMI-8226) was > 100 µM (inactive) and the GI50 (TK-10) was > 100 µM (inactive). The GI50 (K562) was > 100 µM (inactive), the GI50 (CCRF-CEM) was > 100 µM (inactive) and the GI50 (Malme-3M) was > 100 µM (inactive). The GI50 (SNB-19) was > 100 µM (inactive), the GI50 (M19-MEL) was > 100 µM (inactive) and the GI50 (NCI-H226) was > 100 µM (inactive). For the same compound, the GI50 (IGROV-1) was > 100 µM (inactive), the GI50 (NCI-H23) was > 100 µM (inactive) and the GI50 (OVCAR-8) was > 100 µM (inactive). For the same compound, the GI50 (DMS-273) was > 100 µM (inactive), the GI50 (RXF 393) was > 10 µM (inactive) and the GI50 (SK-MEL-5) was > 100 µM (inactive). For the same compound, the GI50 (A549) was > 100 µM (inactive), the GI50 (HT-29) was > 100 µM (inactive) and the GI50 (SNB-75) was > 100 µM (inactive). The GI50 (SF-539) was > 100 µM (inactive), the GI50 (SK-MEL-2) was > 100 µM (inactive) and the GI50 (CAKI-1) was > 100 µM (inactive). The GI50 (UO-31) was > 100 µM (inactive), the GI50 (HOP-18) was > 100 µM (inactive) and the GI50 (A498) was > 100 µM (inactive). For the same compound, the GI50 (OVCAR-4) was > 100 µM (inactive), the GI50 (HCT-15) was > 100 µM and the GI50 (OVCAR-3) was > 100 µM (inactive). For the same compound, the GI50 (ACHN) was > 100 µM (inactive), the GI50 (DLD-1) was > 100 µM (inactive) and the GI50 (SK-OV-3) was > 100 µM (inactive). The GI50 (U-251) was > 100 µM (inactive), the GI50 (786-0) was > 100 µM (inactive) and the GI50 (SW-620) was > 100 µM (inactive). For the same compound, the GI50 (SK-MEL-28) was > 100 µM (inactive), the GI50 (SF-268) was > 100 µM (inactive) and the GI50 (EKVX) was > 100 µM (inactive). The GI50 (LOX IMVI) was > 100 µM (inactive) and the GI50 (KM12) was > 100 µM (inactive).
